Patent US20110003017A1, “Method for Preparation of Extract from Angelica Gigas Nakai and Composition Containing the Extract” (AZI Co., Ltd., priority 2007, published 2011)

Assay: antioxidant effects (electron donating ability) using DPPH
Type: biochemical
Conditions: DPPH radical scavenging, absorbance at 520 nm
Experimental: The antioxidant effects were determined using 1,1-diphenyl-2-picryl hydrazyl (DPPH). Analysis of the extract using DPPH is performed by the following method.
DPPH having radicals is mostly used for determining radical scavenging performance. DPPH was purchased from Sigma. The following procedures were carried out:
1) 2 ml of 0.1 mM […] (Sigma, D-9132) in ethanol was added to 2 ml of a sample dissolved in ethanol;
2) After mixing the solution for 10 minutes, the mixture was left in a dark place;
3) Absorbance of the resultant product at 520 nm was measured;
4) Calculation of antioxidant efficacy (electron donating ability),
EDA (electron donating ability)=(Cabs−Sabs)/Cabs*100
wherein • Cabs: absorbance of a negative control (which contains ethanol only instead of a sample), • Sabs: absorbance of a sample, and • Positive control: Vitamin E (Fluka, 95240) as a sample.
Antioxidant effects were compared between both extract powders obtained in Examples 1 and 2. Using DPPH analyzed and quantified EDA to determine the antioxidant effects of the extract powder. IC50 means a concentration required for scavenging 50% of radicals and it is determined that the antioxidant effects are enhanced as IC50 value is lowered.

IC50 (concentration required for scavenging 50% of radicals): 15 µg/mL
Substance: Vitamin E
